Laboratory results as given in patent publication US20100255020A1, “METHOD FOR INDUCING CYTOTOXIC T-CELLS, CYTOTOXIC T-CELL INDUCERS, AND PHARMACEUTICAL COMPOSITIONS AND VACCINES EMPLOYING THEM” (NEC CORPORATION, priority 2007, published 2010).
Where no end group is shown, it is not given here.

What was measured:
HLA-A*0201 molecule = HLA-A*0201 molecule (Homo sapiens, UniProt P04439, D140Y/D185E/D98H/E176V/E277Q/G131W/G231S/I119V/I121R/I166T/I218V/L300P/L318F/N151K/N90K/P208A/P217A/Q86G/Q94H/R138H/R169H/T345S); assay: Peptide binding to HLA-A*0201 molecule on JY cells (flow cytometry, Kd); conditions: HLA-A*0201, JY cells
Description: The ability of a peptide to bind to an HLA-A*0201 molecule, which is a product of the HLA-A*0201 gene, was measured using strain JY cells expressing the HLA-A*0201 molecule.
JY cells were first exposed to acidic conditions at a pH of 3.8 for 30 seconds, thus dissociating and removing a β2m light chain and an endogenous peptide, which were noncovalently associated with the HLA-A* 0201 molecule. After neutralization, a reconstitution experiment was carried out.
The above-mentioned JY cells and the purified […] were added to serial dilutions of peptide for which the binding ability needs to be measured, and incubation was carried out on ice for 4 hours. HLA-A*0201 molecules that had reassociated up to this time point were stained using the fluorescently-labeled monoclonal antibody BB7.2, a conformation dependent monoclonal Ab specific for an assembled form of HLA-A*0201 molecule.
Subsequently, the amount of fluorescence per cell was measured using a flow cytometer and a dissociation constant Kd value was calculated by a method published in the literature (Udaka et al., Immunogenetics, 51, 816-828, 2000).

[1] = system: HLA-A*2402 positive cell lines that express WT1 naturally (KAZZ, KCL22, KH88, MEG01); assay: Reactivity of WT1 peptide-specific cell lines toward tumor cells (IFN-γ ELISPOT); type: cell-based, human; conditions: cell lines established from HLA-A*2402 positive patients, FIG. 5
Description: Reactions of cell lines established from different patients are arranged in a bar graph.

[2] = system: peptide-loaded target cells (C1R-A24, RA24, T2); assay: 51Cr release assay of PBMC killing activity against peptide-loaded target cells; type: cell-based, human
Description: Target cells were labeled with ^51Cr and loaded with HLA-binding peptide of interest. 5,000 or 10,000 cells/well of target cells were placed in 96-well U-bottom plate, and then, PBMCs having been stimulated twice in vitro were added thereto as a responder. Cells were incubated at 37° C. for 5 hours and ^51Cr released from the damaged cells during the incubation was measured, and % specific lysis was calculated. As target cells C1R-A24 or RA24 cells were used as a target when reactivity to HLA-A*2402 binding peptides were examined, and T2 cells were used as a target and incubation was carried out for 2 hours after addition of responder cells. Percent specific lysis was calculated as follows. % specific lysis=(test release-spontaneous release)/(total release-spontaneous release)×100.

[3] = system: W10-specific CD8 positive T cells; assay: HLA-A24 tetramer flow cytometry of peptide-specific T cells; type: cell-based, human; conditions: patient KB07-006, PBMCs incubated with W10 peptide
Description: HLA-A24 tetramer was prepared by modifying a method by Altman et al. (Altman, J D, Moss, P A., Goulder, P J, Barouch, D H, McHeyzer-Williams, M G, Bell, J I, McMichael, A J, Davis, M M. Phenotypic analysis of antigen-specific T lymphocytes. Science […] 274, 94-96.)
HLA-A24 tetramer was prepared by expressing an HLA-A*2402 molecule in E. coli and W10 peptide was bound thereto. Furthermore, the C-terminus of the complex was modified by a site-specific biotinyltion. The product was then complexed with streptavidin (SA), giving rise to a molecular assembly consisting of 4 molecules of W10-bound HLA-A*2402 molecules and 1 SA.
Here in this assay, T cells specific for a HLA-A24-W10 complex was fluorescently labeled with […] (phycoerythrin) conjugated SA and antigen specific T cells were identified by flow cytometry.
cDNAs of HLA-A*2402, which is an H-chain constituting an HLA-A*2402 molecule, and human β2m 02-microglobulin) which is a light chain, were inserted into a pET-21d+vector (Novagen, Merck) under T7 promoter, respectively. The resultant vector was introdyced into E. coli BL21 (DE3) pLysS, and expression of the gene was induced using IPTG. […]
This HLA-A*2402-W10 monomer was associated with PE-labeled SA at a molecular ratio of 4:1, thus preparing HLA tetramer. […] T cells were incubated with HLA-A*2402-W10 or HLA-A*2402-HER2-63 on ice for 1 hour and then analyzed by flow cytometry.

[4] = human, in vivo

ALLPAVPSL [W10]
Binding assay data (−log Kd) (HLA-A*0201 molecule): 7.84
Reactivity of peptide-dependent cell line toward WT1-expressing cell lines compared with C1R-A24 [1]: tends to be higher although differences are small
Peptide-reactive cytolytic cells in PBMCs of patients ([2]; HLA-A*0201 binding peptides, T2 targets): contain cytolytic cells that recognize
Peptide-reactive cytolytic cells in PBMCs of patients ([2]; HLA-A*2402 binding peptides, FIG. 9a and b): cytolytic cells include those reactive
W10-specific CD8 positive T cells (HLA-A24-W10 tetramer staining) [3]: increased
Adverse event due to peptide immunotherapy [4]: no adverse event due to peptide immunotherapy was observed, except for an erythema and mild swelling at the site of immunization
Creatinine (Cre) adverse event [4]: Grade 2 increase of Cre
